Results as given in article PMC9871744 (Cellular and Molecular Gastroenterology and Hepatology, 2022).
Where “and” joins values, the source holds several entries; their conditions need not be identical. Identical values can stand only once.

Experiments:
Cytotoxicity evaluation = details: human, Cytotoxicity (%)
HepG2 cells [1] = assay: Cytotoxicity evaluation
HepG2 cells [2] = assay: Micronucleus analysis
C57Bl/6 male mice [3] = assay: Lingual application: pancreato-bile secretion and release of gut peptides; type: in vivo; details: tongue application 100 μmol/L; at 30 and 60 minutes
C57BL/6J male mice = assay: Diet-induced obesity; type: in vivo
human fungiform TBC = assay: Ca2+ signaling in human fungiform TBC; type: cell-based
[4] = tested on: S typhimurium tester strains TA98, TA100, TA1535, and TA1537 and E coli tester strain WP2uvrA(pKM101); details: all doses with and without S9
[5] = tested on: human androgen receptor (hAR); assay: Androgen receptor transcriptional activation and inhibition assays; type: cell-based
[6] = tested on: chorda tympani (CT) nerve; assay: Chorda tympani; type: in vivo; details: lingual application in mice; 1, 2, and 4 mmol/L; normalized to NH4Cl 100 mmol/L
C57Bl/6 male mice [7] = assay: Two-bottle preference and licking tests; type: in vivo; details: 75 μmol/L in 0.3% xanthan gum, 12 hours
mouse fungiform TBC = assay: Ca2+ signaling in mouse fungiform TBC; type: cell-based; details: LA at 20 μmol/L
[8] = Pharmacokinetics and detection in blood by LC-MS; type: in vivo, mice; details: mice
female Wistar rats = assay: Toxicity / median lethal dose test, OECD guidelines 425; type: in vivo
[9] = target: T1, human estrogen receptor alpha (hERα) (Homo sapiens, UniProt P03372); assay: Estrogen receptor transcriptional activation and inhibition assays; type: cell-based
T1 sequence (P03372 1-595): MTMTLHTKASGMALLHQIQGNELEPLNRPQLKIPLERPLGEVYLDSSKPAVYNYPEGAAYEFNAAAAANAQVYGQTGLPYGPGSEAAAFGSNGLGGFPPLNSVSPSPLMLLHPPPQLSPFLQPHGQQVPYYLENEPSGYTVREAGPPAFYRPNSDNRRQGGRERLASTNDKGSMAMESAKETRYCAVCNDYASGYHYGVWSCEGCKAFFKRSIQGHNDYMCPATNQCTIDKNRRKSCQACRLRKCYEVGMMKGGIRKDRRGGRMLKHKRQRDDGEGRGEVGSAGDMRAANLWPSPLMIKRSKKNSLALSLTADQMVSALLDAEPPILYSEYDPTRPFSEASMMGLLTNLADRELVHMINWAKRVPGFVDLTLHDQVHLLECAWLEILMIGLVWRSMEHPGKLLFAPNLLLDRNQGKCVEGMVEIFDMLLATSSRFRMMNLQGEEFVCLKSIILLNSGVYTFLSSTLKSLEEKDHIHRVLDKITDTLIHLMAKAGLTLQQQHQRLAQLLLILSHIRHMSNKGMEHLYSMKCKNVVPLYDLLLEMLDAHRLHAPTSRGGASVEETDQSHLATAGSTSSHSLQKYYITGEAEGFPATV

[10] = short treatment in the presence of S9 mix, 5 μg/mL (Table 4)
[11] = short treatment in the presence of S9 mix, 10 μg/mL (Table 7)
[12] = short treatment in the presence of S9 mix, 5 μg/mL (Table 11)
[13] = short treatment in the presence of S9 mix, 10 μg/mL (Table 12)
[14] = extended treatment in the absence of S9 mix
[15] = short treatment in the absence of S9 mix
[16] = short treatment in the presence of S9 mix
[17] = extended treatment in the absence of S9 mix, 2.5 mmol/L
[18] = extended treatment in the absence of S9 mix, 5 mmol/L
[19] = extended treatment in the absence of S9 mix, 10 mmol/L
[20] = short treatment in the absence of S9 mix, 2.5 mmol/L
[21] = short treatment in the absence of S9 mix, 5 mmol/L
[22] = short treatment in the absence of S9 mix, 10 mmol/L
[23] = short treatment in the presence of S9 mix, 2.5 mmol/L
[24] = short treatment in the presence of S9 mix, 5 mmol/L
[25] = short treatment in the presence of S9 mix, 10 mmol/L
[26] = rats, single oral 2000 mg/kg, means ± SEM (n = 5)
[27] = extended treatment in the absence of S9 mix, 0.0025 μg/mL (Table 5)
[28] = extended treatment in the absence of S9 mix, 0.025 μg/mL (Table 8)
[29] = extended treatment in the absence of S9 mix, 0.0025 μg/mL (Table 13)
[30] = extended treatment in the absence of S9 mix, 0.025 μg/mL (Table 14)

SMILES: O=P1(N(CCCl)CCCl)NCCCO1 (stereo not drawn) [Cyclophosphamide, reference compound]
- cytotoxicity at 5 μg/mL (Cytotoxicity evaluation; [10]): 13%
- cytotoxicity at 10 μg/mL (Cytotoxicity evaluation; [11]): 5.3%
- CBPI (HepG2 cells [1]; [10]): 1.73 and 1.66
- Mean CBPI (HepG2 cells [1]; [10]): 1.70
- CBPI (HepG2 cells [1]; [11]): 1.93 and 2.09
- Mean CBPI (HepG2 cells [1]; [11]): 2.01
- MNBN cells frequency (%) (HepG2 cells [2]; [12]): 2.3% and 3.1%
- Mean frequency (%) of MNBN cells (HepG2 cells [2]; [12]): 2.70%
- MNBN cells frequency (%) (HepG2 cells [2]; [13]): 8.2% and 7.9%
- Mean frequency (%) of MNBN cells (HepG2 cells [2]; [13]): 8.05%

SMILES: CCCCC/C=C\C/C=C\CCCCCCCC(=O)O [LA, linoleic acid, reference compound]
- release of cholecystokinin (CCK) into blood (C57Bl/6 male mice [3]): better inducer than NKS-3

SMILES: CCCCC/C=C\C/C=C\CCCCCCCC(=O)OCC1(C)COC1 [NKS-5, (9Z,12Z)-(3-methyloxetan-3-yl)methyl octadeca-9,12-dienoate]
- cytotoxicity at 2.5 mmol/L (Cytotoxicity evaluation; [14]): 5.29%
- cytotoxicity at 5 mmol/L (Cytotoxicity evaluation; [14]): 19.6%
- cytotoxicity at 10 mmol/L (Cytotoxicity evaluation; [14]): 14.7%
- cytotoxicity at 2.5 mmol/L (Cytotoxicity evaluation; [15]): -5.78%
- cytotoxicity at 5 mmol/L (Cytotoxicity evaluation; [15]): -1.42%
- cytotoxicity at 10 mmol/L (Cytotoxicity evaluation; [15]): 1.32%
- cytotoxicity at 2.5 mmol/L (Cytotoxicity evaluation; [16]): -0.59%
- cytotoxicity at 5 mmol/L (Cytotoxicity evaluation; [16]): -6.22%
- cytotoxicity at 10 mmol/L (Cytotoxicity evaluation; [16]): 1.64%
- CBPI (HepG2 cells [1]; [17]): 2.02 and 1.97
- Mean CBPI (HepG2 cells [1]; [17]): 1.99
- CBPI (HepG2 cells [1]; [18]): 1.83 and 1.85
- Mean CBPI (HepG2 cells [1]; [18]): 1.84
- CBPI (HepG2 cells [1]; [19]): 1.95 and 1.84
- Mean CBPI (HepG2 cells [1]; [19]): 1.89
- CBPI (HepG2 cells [1]; [20]): 1.99 and 1.98
- Mean CBPI (HepG2 cells [1]; [20]): 1.98
- CBPI (HepG2 cells [1]; [21]): 1.95 and 1.94
- Mean CBPI (HepG2 cells [1]; [21]): 1.94
- CBPI (HepG2 cells [1]; [22]): 1.91 and 1.93
- Mean CBPI (HepG2 cells [1]; [22]): 1.92
- CBPI (HepG2 cells [1]; [23]): 2.07
- Mean CBPI (HepG2 cells [1]; [23]): 2.07
- CBPI (HepG2 cells [1]; [24]): 2.14 and 2.12
- Mean CBPI (HepG2 cells [1]; [24]): 2.13
- CBPI (HepG2 cells [1]; [25]): 2.06 and 2.04
- Mean CBPI (HepG2 cells [1]; [25]): 2.05
- CD36 (reduced) and GPR120 (high) protein expression in TBC, Western blots (C57BL/6J male mice; HFD animals, FTA intake 16 weeks): reversed this trend
- LA-induced decreases in [Ca2+]i in TBC from obese mice (C57BL/6J male mice; HFD mice given FTA 16 weeks): reversed
- size of hepatocytes (C57BL/6J male mice; HFD-fed mice): decreased
- fecal microbiota: bacterial family increased (C57BL/6J male mice; HFD-fed mice, 16S rRNA sequencing, week 26): Bacteroidaceae
- adipose tissue mRNA encoding leptin, CD36, TNF-α, and IL6 (C57BL/6J male mice; HFD-fed mice, epididymal adipose tissue): down-regulated
- crown-like structures of adipocytes (C57BL/6J male mice; obese animals, histology): decreased
- circulating TNF-α levels (C57BL/6J male mice; obese mice): failed to decrease significantly
- release of GLP-1, CCK-1, and PYY into blood circulation (C57BL/6J male mice; obese mice, end of week 26): induced the release
- Ca2+ signaling compared with a dietary long-chain fatty acid (human fungiform TBC): higher
- increase in intracellular free Ca2+ concentrations, [Ca2+]i (human fungiform TBC; NKS-3 50 μmol/L, NKS-5 25 μmol/L): induced an increase
- toxicity in the tester strains [4]: No toxicity
- androgenic or antiandrogenic property (conclusion) [5]: did not possess androgenic or antiandrogenic property
- CT nerve responses compared with dietary LCFAs (LA, OA) [6]: higher
- preference in 2-bottle paradigm versus control solution (C57Bl/6 male mice [7]): significant preference
- Ca2+ signaling compared with a dietary long-chain fatty acid (mouse fungiform TBC): higher
- MNBN cells frequency (%) (HepG2 cells [2]; [20]): 1.1% and 0.8%
- Mean frequency (%) of MNBN cells (HepG2 cells [2]; [20]): 0.95%
- MNBN cells frequency (%) (HepG2 cells [2]; [21]): 1.1% and 1.3%
- Mean frequency (%) of MNBN cells (HepG2 cells [2]; [21]): 1.20%
- MNBN cells frequency (%) (HepG2 cells [2]; [22]): 0.9% and 0.8%
- Mean frequency (%) of MNBN cells (HepG2 cells [2]; [22]): 0.85%
- MNBN cells frequency (%) (HepG2 cells [2]; [23]): 1.0% and 1.1%
- Mean frequency (%) of MNBN cells (HepG2 cells [2]; [23]): 1.05%
- MNBN cells frequency (%) (HepG2 cells [2]; [24]): 0.9%
- Mean frequency (%) of MNBN cells (HepG2 cells [2]; [24]): 0.90%
- MNBN cells frequency (%) (HepG2 cells [2]; [25]): 0.9% and 0.8%
- Mean frequency (%) of MNBN cells (HepG2 cells [2]; [25]): 0.85%
- detection in blood circulation after intravenous injections (LC-MS) [8]: below the level of detection
- weight of kidneys (female Wistar rats; [26]): 1.84 ± 0.112 g
- weight of liver (female Wistar rats; [26]): 8.03 ± 0.136 g
- weight of spleen (female Wistar rats; [26]): 0.90 ± 0.062 g
- toxic effect on liver enzymes and blood lipid parameters (female Wistar rats; rats, single oral limit dose 2000 mg/kg body weight, 2 weeks): No toxic effect
- evidence of toxicity, preliminary study (female Wistar rats; single animal, oral dosages of 5000 mg/kg body weight): no evidence of toxicity
- release of cholecystokinin (CCK) into blood (C57Bl/6 male mice [3]): more efficient than NKS-3 and LA
- release of peptide YY (PYY) into blood (C57Bl/6 male mice [3]): more potent than NKS-3 and LA
- estrogenic or antiestrogenic potential (conclusion) [9]: did not exert an estrogenic or antiestrogenic potential

SMILES: CC[C@]1(O)C[C@@H]2CN(CCc3c([nH]c4ccccc34)[C@@](C(=O)OC)(c3cc4c(cc3OC)N(C)[C@H]3[C@@](O)(C(=O)OC)[C@H](OC(C)=O)[C@]5(CC)C=CCN6CC[C@]43[C@@H]65)C2)C1 [Vinblastine, reference compound]
- cytotoxicity at 0.0025 μg/mL (Cytotoxicity evaluation; [27]): 27.1%
- cytotoxicity at 0.025 μg/mL (Cytotoxicity evaluation; [28]): 9.29%
- CBPI (HepG2 cells [1]; [27]): 1.67
- Mean CBPI (HepG2 cells [1]; [27]): 1.67
- CBPI (HepG2 cells [1]; [28]): 1.97 and 1.92
- Mean CBPI (HepG2 cells [1]; [28]): 1.95
- MNBN cells frequency (%) (HepG2 cells [2]; [29]): 11.5% and 12.3%
- Mean frequency (%) of MNBN cells (HepG2 cells [2]; [29]): 11.9%
- MNBN cells frequency (%) (HepG2 cells [2]; [30]): 4.6% and 4.1%
- Mean frequency (%) of MNBN cells (HepG2 cells [2]; [30]): 4.35%
